Laboratory results from patent US20220280593A1, “METHODS FOR […] CORONARY ARTERY BYPASS GRAFT PROCEDURE” (Stealth BioTherapeutics Inc., priority 2009, published 2022).
“Also recorded” adds a separate entry of the source. Non-standard residues stand in square brackets, D forms with d. No end group written: not given here.

Columns and labels:
[1] = system: several mammalian cell types; conditions: energy-independent manner; Zhao et al., 2003; cited from earlier work
[2] = system: animal model of ARI; conditions: cited from earlier work
[3] = system: New Zealand white rabbits; test: Rabbit model of acute myocardial ischemia and reperfusion (30 min ischemia, 180 min reperfusion), infarct size by histomorphometry; format: in vivo
Experimental: New Zealand white rabbits were used in this study. The rabbits were males and >10 weeks in age. Environmental controls in the animal rooms were set to maintain temperatures of 61° to 72° F. and relative humidity between 30% and 70%. Room temperature and humidity were recorded hourly, and monitored daily. There were approximately 10-15 air exchanges per hour in the animal rooms. Photoperiod was 12-hr light/12-hr dark (via fluorescent lighting) with exceptions as necessary to accommodate dosing and data collection. Routine daily observations were performed. Harlan Teklad, Certified Diet (2030C), rabbit diet was provided approximately 180 grams per day from arrival to the facility. In addition, fresh fruits and vegetables were given to the rabbit 3 times a week.
The peptide D-Arg-2′6′-Dmt-Lys-Phe-NH2 (sterile lyophilized powder) was used as the test article. Dosing solutions were formulated at no more than 1 mg/ml, and were delivered via continuous infusion (IV) at a constant rate (e.g., 50 μL/kg/min). Normal saline (0.9% NaCl) was used as a control.
The test/vehicle articles were given intravenously, under general anesthesia, in order to mimic the expected route of administration in the clinical setting of AMI and PTCA. Intravenous infusion was administered via a peripheral vein using a Kd Scientific infusion pump (Holliston, MA 01746) at a constant volume (e.g., 50 μL/kg/min).
The study followed a predetermined placebo and sham controlled design. In short, 10-20 healthy, acclimatized, male rabbits were assigned to one of three study arms (approximately 2-10 animals per group). Arm A (n=10, CTRL/PLAC) includes animals treated with vehicle (vehicle; VEH, IV); Arm B (n=10, treated) includes animals treated with peptide; Arm C (n=2, SHAM) includes sham-operated time-controls treated with vehicle (vehicle; VEH, IV) or peptide.
In all cases, treatments were started approximately 10 min after the onset of a 30 min ischemic insult (coronary occlusion) and continued for up to 3 h following reperfusion. In all cases, cardiovascular function was monitored both prior to and during ischemia, as well as for up to 180 min (3 h) post-reperfusion. The experiments were terminated 3 h post-reperfusion (end of study); irreversible myocardial injury (infarct size by histomorphometery) at this time-point was evaluated, and was the primary-end-point of the study.
Following hemodynamic stabilization and baseline measurements, the animals were subjected to an acute 30 min ischemic insult by tightening of the LAD/LCX coronary artery snares. […]
Histopathology/Histomorphometery. At the completion of the protocol, irreversible myocardial injury (i.e., infarction) resulting from the I/R insult was evaluated. […]

[4] = system: wild type mice; conditions: treatment at 0, 6, 24 and 48 hours after 30 min occlusion; U.S. Patent Publication No. 20070129306; cited from earlier work
[5] = system: mitochondria; conditions: cited from earlier work
[6] = system: mu-opioid receptor; conditions: cited from earlier work
[7] = system: mitochondria; conditions: cited from earlier work; remark: listed apart in the source
[8] = Stability of the drug substance; format: physicochemical
Experimental: Study Drug. D-Arg-2′6′-Dmt-Lys-Phe-NH2 is a small peptide (CAS No. 736992-21-5). Its molecular weight is 639.8 (free base). […] The drug substance will be provided as a lyophilized powder in sterile glass vials. Each vial will be reconstituted with 10 mL of sterile D5W by the unblinded pharmacist at each site.

[9] = 45 min ischemia and 24 h reperfusion
[10] = IV continuous infusion from 10 min into 30 min ischemia through 180 min reperfusion, n = 10, p < 0.05 vs placebo

For 2′,6′-Dmt-D-Arg-Phe-Lys-NH2, the “penetration of the plasma membrane” value [1] is given as “readily penetrates”.
In the case of D-Arg-2′,6′-Dmt-Lys-Phe-NH2, the histopathological score [2, 9] is given as “significantly improved”, the “rate of ATP production after reperfusion” value [2, 9] is given as “significantly increased” and the “incidence of ARI caused by ischemia-reperfusion” value ([2]; U.S. Patent Publication No. 20090221514) is given as “effective in reducing”. The “interstitial fibrosis, tubular apoptosis, macrophage infiltration and tubular proliferation” value ([2]; animal model of ARI) was “effective in reducing”, the “myocardial infarct size compared to the control” value ([3]; 30 min ischemia, infusion continued 180 min after reperfusion, listed as peptide) was “decreased infarct size; also recorded: able to reduce myocardial infarct size” and the “Myocardial Area IA/AR (infarcted area / area at risk)” value [3, 10] was 24.7 ± 4.7%. For the same substance, the “Myocardial Area IA/LV (infarcted area / left ventricular area)” value [3, 10] was 16.2 ± 3.4%, the myocardial salvage ([3]; treatment for less than 3 hours after reperfusion, i.e., 30 min, data not shown) was “comparable myocardial salvage” and the “hemispheric swelling compared to saline controls” value [4] was “significant reduction”. The “infarct volume compared to saline controls” value [4] was “significant reduction”, the “concentration in the mitochondrial pellet relative to extracellular fluid” value [5] was “approximately 5000 fold” and the “intracellular concentration relative to extracellular fluid” value [5] was “six”. For the same substance, the “mu-opioid receptor agonist activity” value [6] was “does not have mu-opioid receptor agonist activity”, the “adenosine triphosphate (ATP) levels” value [7] was “maintaining” and the “electron transfer within the mitochondrial electron transport chain” value [7] was “facilitating”. The “loss of mitochondrial membrane potential” value [7] was “preventing”, the “mitochondrial respiration (oxygen consumption)” value [7] was “maintaining” and the “mitochondrial swelling (mPTP opening)” value [7] was “preventing”. For the same substance, the “reactive oxygen species (ROS)” value [7] was “scavenging”, the “release of cytochrome c” value [7] was “preventing” and the resistance to oxidation [8] was “resistant to oxidation”. For the same substance, the “temperature up to which stable” value [8] was “up to 40 °C” and the stability to light ([8]; powder or liquid form) was “stable to light”.
In the case of F[dR]FK-NH2, the “mu-opioid receptor agonist activity” value [6] is given as “does not have mu-opioid receptor agonist activity”.
In the case of Tyr-D-Arg-Phe-Lys-NH2, the “mu-opioid receptor agonist activity” value [6] is listed as “has mu-opioid receptor agonist activity”.
